Results taken from patent US20250215039A1, “NUCLEOSIDES FOR TREATING CANCER” (PRIMEFOUR THERAPEUTICS, INC., priority 2022, published 2025).
Like-named read-outs stand apart in the source and are kept apart here.

Test system: cancer cell lines
Assay: Cancer cell proliferation activity (CellTiterGlo, 72 h)
Type: cell-based
Settings: 72 h, 72 h, read-out: IC50
How it was run: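 Readout is CellTiterGlo luminescence after 72 h compound exposure (0.1% DMSO final), started one day post-seeding, at 37 °C.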

IC50 (5637 cell line (bladder)): 560 nM
IC50 (AS49 cell line (lung)): 3010 nM
IC50 (CLS439 cell line (bladder)): 3260 nM
IC50 (HS729 cell line (muscle)): 870 nM
IC50 (JAR cell line (placenta)): 320 nM
IC50 (Homo sapiens, 22Rv1, 72 h, 22RV1 cell line (prostate)): 1080 nM
IC50 (Homo sapiens, 786-0, 72 h, 786O cell line (kidney)): 300 nM
IC50 (Homo sapiens, A204, 72 h, A204 cell line (muscle)): 220 nM
IC50 (Homo sapiens, A673, 72 h, A673 cell line (bone)): 1440 nM
IC50 (Homo sapiens, A2780, 72 h, A2780 cell line (ovary)): 740 nM
IC50 (Homo sapiens, A-375, 72 h, A375 cell line (skin)): 200 nM
IC50 (Homo sapiens, A-431, 72 h, A431 cell line (skin)): 330 nM
IC50 (Homo sapiens, ACHN, ACHN cell line (kidney)): 2540 nM
IC50 (Homo sapiens, ASPC1, 72 h, ASPC1 cell line (pancreas)): 220 nM
IC50 (Homo sapiens, BT-20, 72 h, BT20 cell line (breast)): 340 nM
IC50 (Homo sapiens, BXPC-3, 72 h, BXPC3 cell line (pancreas)): 2530 nM
IC50 (Homo sapiens, C-33-A, C33A cell line (cervical)): 630 nM
IC50 (Homo sapiens, CAKI-1, 72 h, CAKI1 cell line (kidney)): 20 nM
IC50 (Homo sapiens, COLO 205, 72 h, COLO205 cell line (colon)): 760 nM
IC50 (Homo sapiens, COLO-678, 72 h, COLO678 cell line (colon)): 1990 nM
IC50 (Homo sapiens, Ca-Ski, CASKI cell line (cervical)): 160 nM
IC50 (Homo sapiens, Caco-2, 72 h, CACO2 cell line (colon)): 610 nM
IC50 (Homo sapiens, Calu-6, 72 h, CALU6 cell line (lung)): 300 nM
IC50 (Homo sapiens, DLD-1, 72 h, DLD1 cell line (colon)): 2030 nM
IC50 (Homo sapiens, DU-145, 72 h, DU145 cell line (prostate)): 120 nM
IC50 (Homo sapiens, EFO-21, 72 h, EFO21 cell line (ovary)): 330 nM
IC50 (Homo sapiens, EJ-28, 72 h, EJ28 cell line (bladder)): 220 nM
IC50 (Homo sapiens, Granta-519, 72 h, GRANTA-519 cell line (hematological)): 2600 nM
IC50 (Homo sapiens, HCT-15, 72 h, HCT15 cell line (colon)): 1460 nM
IC50 (Homo sapiens, HCT-116, 72 h, HCT116 cell line (colon)): 480 nM
IC50 (Homo sapiens, HEK293, 72 h, HEK293 cell line (kidney)): 380 nM
IC50 (Homo sapiens, HL-60, 72 h, HL-60 cell line (hematological)): 330 nM
IC50 (Homo sapiens, HT-29, 72 h, HT29 cell line (colon)): 220 nM
IC50 (Homo sapiens, HT-1080, 72 h, HT1080 cell line (connective tissue)): 3630 nM
IC50 (Homo sapiens, HeLa, HELA cell line (cervical)): 440 nM
IC50 (Homo sapiens, HepG2, 72 h, HEPG2 cell line (liver)): 300 nM
IC50 (Homo sapiens, Hs-578T, HS578T cell line, breast): 550 nM
IC50 (Homo sapiens, IGROV-1, 72 h, IGROV1 cell line (ovary)): 200 nM
IC50 (Homo sapiens, IMR-90, 72 h, IMR90 cell line, lung): 410 nM
IC50 (Homo sapiens, J82, 72 h, J82 cell line (bladder)): 470 nM
IC50 (Homo sapiens, JEG-3, 72 h, JEG3 cell line (placenta)): 290 nM
IC50 (Homo sapiens, JIMT-1, 72 h, JIMT1 cell line (breast)): 80 nM
IC50 (Homo sapiens, K562, 72 h, K-562 cell line (hematological)): 5370 nM
IC50 (Homo sapiens, Kasumi 1, 72 h, KASUMI-1 cell line (hematological)): 60 nM
IC50 (Homo sapiens, L-363, 72 h, L-363 cell line (hematological)): 290 nM
IC50 (Homo sapiens, LoVo, LOVO cell line (colon)): 140 nM
IC50 (Homo sapiens, MCF7, 72 h, MCF7 cell line (breast)): 9700 nM
IC50 (Homo sapiens, MDA-MB-231, 72 h, MDAMB231 cell line (breast)): 2850 nM
IC50 (Homo sapiens, MDA-MB-435, 72 h, MDAMB435 cell line (skin)): 1400 nM
IC50 (Homo sapiens, MDA-MB-436, 72 h, MDAMB436 cell line (breast)): 190 nM
IC50 (Homo sapiens, MDA-MB-468, 72 h, MDAMB468 cell line (breast)): 270 nM
IC50 (Homo sapiens, MG-63, 72 h, MG63 cell line (bone)): > 50000 nM
IC50 (Homo sapiens, MHH-ES-1, 72 h, MHHES1 cell line (bone)): 400 nM
IC50 (Homo sapiens, MIA PaCa-2, 72 h, MIAPACA2 cell line (pancreas)): > 50000 nM
IC50 (Homo sapiens, MINO, MINO cell line (hematological)): 150 nM
IC50 (Homo sapiens, MV4-11, 72 h, MV4-11 cell line (hematological)): 50 nM
IC50 (Homo sapiens, NCI-H23, 72 h, NCI-H23 cell line (lung)): 410 nM
IC50 (Homo sapiens, NCI-H82, 72 h, NCIH82 cell line (lung)): 390 nM
IC50 (Homo sapiens, NCI-H292, 72 h, NCIH292 cell line (lung)): 4170 nM
IC50 (Homo sapiens, NCI-H460, 72 h, NCIH460 cell line (lung)): 500 nM
IC50 (Homo sapiens, OVCAR-3, 72 h, OVCAR3 cell line (ovary)): 170 nM
IC50 (Homo sapiens, OVCAR-4, 72 h, OVCAR4 cell line (ovary)): 560 nM
IC50 (Homo sapiens, PANC-1, 72 h, PANC1 cell line (pancreas)): > 50000 nM
IC50 (Homo sapiens, PC-3, 72 h, PC3 cell line (prostate)): 470 nM
IC50 (Homo sapiens, PLC-PRF-5, 72 h, PLCPRF5 cell line (liver)): 2020 nM
IC50 (Homo sapiens, Panc1005, 72 h, PANC1005 cell line (pancreas)): 230 nM
IC50 (Homo sapiens, RD, RD cell line (muscle)): 640 nM
IC50 (Homo sapiens, Ramos, RAMOS cell line (hematological)): 520 nM
IC50 (Homo sapiens, SAOS-2, 72 h, SAOS2 cell line (bone)): 300 nM
IC50 (Homo sapiens, SF-268, 72 h, SF268 cell line (brain)): 5030 nM
IC50 (Homo sapiens, SF-295, 72 h, SF295 cell line (brain)): 1650 nM
IC50 (Homo sapiens, SK-BR-3, 72 h, SKBR3 cell line (breast)): 50 nM
IC50 (Homo sapiens, SK-HEP1, 72 h, SKHEP1 cell line (liver)): 2410 nM
IC50 (Homo sapiens, SK-LMS-1, 72 h, SKLMS1 cell line (uterus)): 300 nM
IC50 (Homo sapiens, SK-MEL-5, 72 h, SKMEL5 cell line, skin): 3170 nM
IC50 (Homo sapiens, SK-MEL-28, 72 h, SKMEL28 cell line (skin)): 680 nM
IC50 (Homo sapiens, SK-N-AS, SKNAS cell line (brain)): 370 nM
IC50 (Homo sapiens, SK-N-SH, SKNSH cell line (brain)): 260 nM
IC50 (Homo sapiens, SK-OV-3, 72 h, SKOV3 cell line (ovary)): 460 nM
IC50 (Homo sapiens, SNB-75, 72 h, SNB75 cell line (brain)): 1380 nM
IC50 (Homo sapiens, SU-DHL10, 72 h, SU-DHL-10 cell line (hematological)): 460 nM
IC50 (Homo sapiens, SU-DHL-6, 72 h, SU-DHL-6 cell line (hematological)): 240 nM
IC50 (Homo sapiens, SW-620, 72 h, SW620 cell line (colon)): 360 nM
IC50 (Homo sapiens, T-24, 72 h, T24 cell line (bladder)): 600 nM
IC50 (Homo sapiens, TE-671, 72 h, TE671 cell line (muscle)): 2440 nM
IC50 (Homo sapiens, THP-1, 72 h, THP-1 cell line (hematological)): 2270 nM
IC50 (Homo sapiens, U2OS, U2OS cell line (bone)): 510 nM
IC50 (Homo sapiens, U-87 MG, U87MG cell line (brain)): 3130 nM
IC50 (Homo sapiens, UMUC3, 72 h, UMUC3 cell line (bladder)): 3040 nM
IC50 (Homo sapiens, UO-31, 72 h, UO31 cell line (kidney)): 240 nM
IC50 (Homo sapiens, WSU-NHL, WSU-NHL cell line (hematological)): 460 nM
IC50 (MT-3, 72 h, MT3 cell line (breast)): 280 nM
IC50 (NCI-H358M, NCIH358M cell line (lung)): 270 nM
IC50 (PBMC, PBMC (hematological)): > 50000 nM
IC50 (RD-ES, RDES cell line (bone)): 250 nM
Compound: CCC[C@]1(CO)O[C@@H](n2cnc3c(N)nc(F)nc32)C[C@@H]1O [Cpd. No. 129, (2R,3S,5R)-5-(6-amino-2-fluoro-9H-purin-9-yl)-2-(hydroxymethyl)-2-propyltetrahydrofuran-3-ol]
